In brackets after ≈: the same amount, converted by molar mass.
Columns and labels:
[1] = system: NCM460 cells; test: Sulforhodamine B (SRB) cell viability assay, NCM460; format: cell-based; conditions: Homo sapiens, non-neoplastic cell line, 48 h, read-out: IC50 (μM) ± SD, NCM460
Method: (§1) The cells were allowed to adhere overnight, from 12 h to 18 h, and then treated with increasing concentrations of each compound, C9, A36, and A42 (0.125 μM, 0.25 μM, 0.5 μM, 1 μM, 2.5 μM, and 5 μM), in their respective culture mediums for 48 h. In addition to a negative control that consisted only of cells and growth medium, a negative control containing the highest concentration of the solvent in which the compound was dissolved (DMSO 0.1%) was also used. The SRB assay was performed according to Marques et al.. The IC50 values were obtained using GraphPad Prism version 8.2.1 through the application of a sigmoidal dose–response nonlinear regression, after logarithmic transformation. The selectivity index was determined by dividing the IC50 value of the non-neoplastic BJ-5ta cell line by the IC50 value of the cancer cell lines (IC50 BJ-5ta/IC50 cancer cell line); furthermore, for the CRC model, a second selectivity index was also determined using the non-neoplastic NCM460 cell line (IC50 NCM460/IC50 CRC cell line). According to the results of the selectivity index, the cell line with the highest selectivity value for each of the models, CRC and breast, was selected for subsequent characterization.
(§2) Three CRC-derived cell lines, SW480 (KRAS^G12V), HCT116 (KRAS^G13D), and RKO (BRAF^V600E), harboring somatic mutations on KRAS or BRAF, and two breast-cancer-derived cell lines, MDA-MB-231 (basal like) and MCF7 (luminal A subtype), together with two non-neoplastic cell lines, NCM460 (normal colon mucosal epithelial cell line) and BJ-5ta (normal foreskin fibroblast cell line), were used to study the activity and selectivity of the three new benzo[a]phenoxazine compounds, C9, A36, and A42. All cell lines were treated with a range of drug concentrations (0.125 μM, 0.25 μM, 0.5 μM, 1 μM, 2.5 μM, and 5 μM) for 48 h, and the effect on cell viability was assessed using a sulforhodamine B assay (SRB) (Figure 2). […] In addition, the selectivity index was determined using the BJ-5ta cell line as a reference, as well as the NCM460 cell line for the CRC model (Table 1).

[2] = system: RKO cells; test: ROS levels (DHE, flow cytometry), RKO; format: cell-based, human; conditions: 2 × IC50 and 4 × IC50, 48 h
Method: The RKO and MCF7 ROS levels were evaluated through flow cytometry using the dihydroethidium (DHE) probe. RKO and MCF7 cells were seeded in 12-well plates at a density of 1 × 10^5 cells/mL. After 24 h, the cells were treated with the compounds C9, A36, and A42 at 2 × IC50 and 4 × IC50 concentrations or 0.1% DMSO (vehicle). As a control, untreated cells were used. The cells were collected after 48 h of treatment, washed with PBS 1×, and stained for 30 min at 37 °C in the dark using 0.5 μM DHE. The DHE mean fluorescence intensity was analyzed by flow cytometry using the PE-A channel.
Since ROS generation is reported to precede LMP and cell death, and in view of reports showing that some compounds of this family increase intracellular ROS levels under certain circumstances, we also investigated whether C9, A36, and A42 had any effects in this regard.

[3] = system: MCF7 cells; test: Annexin V/PI assay (flow cytometry), MCF7; format: cell-based, human; conditions: MCF7, 2 × IC50 and 4 × IC50, 48 h
Method: RKO and MCF7 cells were seeded in 12-well plates at a density of 1 × 10^5 cells/mL. After 24 h, the cells were treated with C9, A36, and A42 at 2 × IC50 and 4 × IC50 concentrations or 0.1% DMSO (vehicle). Untreated cells were used as controls. After 48 h, floating and adherent cells were collected. The cells were resuspended in […] of binding buffer and treated for 15 min in the dark with 5 μL of Annexin V-FITC (Detection Kit-ab14085) and 5 μL of Propidium Iodide (50 μg/mL). The samples were subjected to flow cytometry analysis, PI fluorescence was detected using the ECD-A channel, and Annexin V fluorescence was detected using the FITC-A channel.
One of the main goals of clinical oncology is the development of compounds and treatments capable of selectively eliminating cancer cells. In this sense, we next evaluated the capability of the compounds to induce cell death in both cell lines. For this, we performed a flow cytometry analysis using annexin V-FITC and propidium iodide PI double staining. The conjugation of these two probes allowed for the discrimination of viable (negative for both), early apoptotic (annexin + and PI−), late apoptotic (annexin+ and PI+), and necrotic (annexin− and PI+) cells. […] Both flouting and attached cells were harvested and double stained.

[4] = system: HCT116 cells; test: Sulforhodamine B (SRB) cell viability assay, HCT116; format: cell-based; conditions: Homo sapiens, HCT-116, CRC cell line, 48 h, read-out: IC50 (μM) ± SD, HCT116
Method: as §1, §2

[5] = system: MCF7 cells; test: Lysosomal membrane permeabilization (acridine orange, flow cytometry), MCF7; format: cell-based, human; conditions: MCF7, 4 × IC50, 48 h
Method: (§3) RKO and MCF7 lysosomal membrane permeabilization (LMP) was evaluated through flow cytometry using the Acridine Orange (A.O) probe. RKO and MCF7 cells were seeded in 12-well plates at a density of 1 × 10^5 cells/mL. After 24 h, the cells were treated with the compounds C9, A36, and A42 at 2 × IC50 and 4 × IC50 concentrations or 0.1% DMSO (vehicle). As a control, untreated cells were employed. Following a 48 h period, the adherent and floating cells were collected and subjected to a 15-min dark incubation period at 37 °C with 1 μM A.O. After that, the samples were examined by flow cytometry using the PC5.5 channel.
(§4) Following the information obtained with the lead compound and considering the microscopic observations made with these new compounds, we next investigated whether their toxicity was also associated with lysosome targeting. To this end, we evaluated the induction of lysosomal membrane permeabilization (LMP) by flow cytometry, using acridine orange (AO) as probe. This probe allows for an assessment of permeabilization, as its fluorescence decreases upon the release of lysosomal protons. […] The cells that presented decreased AO fluorescence were considered to have permeabilized lysosomes.

[6] = system: MDA-MB-231 cells; test: Sulforhodamine B (SRB) cell viability assay, MDA-MB-231; format: cell-based, human
Method: as §1
Three CRC-derived cell lines, SW480 (KRAS^G12V), HCT116 (KRAS^G13D), and RKO (BRAF^V600E), harboring somatic mutations on KRAS or BRAF, and two breast-cancer-derived cell lines, MDA-MB-231 (basal like) and MCF7 (luminal A subtype), together with two non-neoplastic cell lines, NCM460 (normal colon mucosal epithelial cell line) and BJ-5ta (normal foreskin fibroblast cell line), were used to study the activity and selectivity of the three new benzo[a]phenoxazine compounds, C9, A36, and A42. All cell lines were treated with a range of drug concentrations (0.125 μM, 0.25 μM, 0.5 μM, 1 μM, 2.5 μM, and 5 μM) for 48 h, and the effect on cell viability was assessed using a sulforhodamine B assay (SRB) (Figure 2). The results were used to determine the IC50 value of each compound for all the cell lines (Table 1). In addition, the selectivity index was determined using the BJ-5ta cell line as a reference, as well as the NCM460 cell line for the CRC model (Table 1).

[7] = system: RKO cells; test: Sulforhodamine B (SRB) cell viability assay, RKO; format: cell-based; conditions: Homo sapiens, CRC cell line, 48 h, read-out: IC50 (μM) ± SD, RKO
Method: as §1, §2

[8] = system: S. cerevisiae; conditions: yeast S. cerevisiae, microdilution; cited from earlier work
[9] = system: RKO cells; test: Lysosomal membrane permeabilization (acridine orange, flow cytometry), RKO; format: cell-based, human; conditions: 4 × IC50, 48 h
Method: as §3, §4

CCCNc1cc2oc3cc(=NCC)c(C)cc-3nc2c2ccccc12 [C9]
IC50 [1]: 1.12 ± 0.13 µM
ROS levels (fluorescence mean of DHE) [2]: higher intensity
Cell death induction (Annexin V/PI) [3]: most powerful compounds
IC50 [4]: 1.64 ± 0.09 µM
Percentage of cells with LMP (permeabilized lysosomes) [5]: more than 80%
IC50 ([6]; Homo sapiens, MDA-MB-231, breast cancer cell line, 48 h, SRB, read-out: IC50 (μM) ± SD, MDA-MB-231): 1.19 ± 0.05 µM
Selectivity Index Cell Line IC50/BJ-5ta IC50 ([6]; MDA-MB-231 versus BJ-5ta): 2.14
IC50 [7]: 0.17 ± 0.01 µM
MIC (minimum inhibitory concentration) [8]: 6.25 µM (≈ 2.16 µg/mL)
Percentage of cells with LMP (permeabilized lysosomes) [9]: more than 80%

Reference: paper PMC11352945, “Anticancer Activity of Benzo[a]phenoxazine Compounds Promoting Lysosomal Dysfunction” (Cells, 2024)
